From patent US11396497B2, “Proteasome inhibitors” (New Mexico Tech University Research Park Corporation, priority 2018, dated 2022)
Like-named read-outs stand apart in the source and are kept apart here.

Assays:
[1] = system: MCF7 cells; experiment: MTT assay cytotoxicity MCF7; details: Homo sapiens
Procedure: (§4) The cells were incubated at 37° C. in a humidified atmosphere with 5% CO2.
(§5) 100 μL of cells were added to each well of a 96 well microtiter plate at a concentration of 4×10^4 cells/mL and incubated overnight to allow proper adhesion. (RPMI 8226 cells were plated at 4×10^5 cells/mL). The cells were treated with the panel of test compounds at a series of concentrations, along with vehicle control DMSO and untreated cells as controls. After 48 h incubation, 20 μL of MTT reagent (3-(4,5-dimethylthiazol-2-yl)-2,5-diphenyltetrazolium bromide) in PBS (5 mg/mL) was added to each well of the plates. The plate was incubated for 2 h at 37° C. For adherent cell lines, the media was removed from each well of the plate and the resulting formazan crystals dissolved in 100 μL of DMSO. For RPMI 8226 cells, 200 ul of DMF/SDS mix (50% DMF. 10% w/v SDS pH<4) was used to solubilize the formazan crystals. Optical density (OD) at 490 nm was measured using a microplate reader. Cells treated with 1 μM phenyl arsine oxide (PAO) served as a positive cell-killing control. Technical replicates of these assays were performed in biological quadruplicate, and the three best values were used for analysis in order to eliminate outliers. Data presented are the average IC50 value calculated from at least 3 technical replicates with the corresponding standard deviation.

[2] = target: T1, yeast proteasome yβ1 subunit (Saccharomyces cerevisiae, UniProt P25043+P38624); experiment: Subunit selectivity, purified yeast proteasome yβ1; assay type: biochemical
T1 construct: measured using 8 μg/mL of purified yCP or iCP
Procedure: (§1) The compounds were diluted with lysis buffer; 10 μL of the compound-containing solution was added to the test wells at ten times the final concentration. […] The results are reported as the average of at least 3 technical replicates of IC50 values for proteasome inhibition.
(§2) Values and standard deviations were calculated from an assay performed in biological triplicate.

[3] = target: T2, yeast proteasome yβ2 subunit (Saccharomyces cerevisiae, UniProt P25043+P25451); experiment: Subunit selectivity, purified yeast proteasome yβ2; assay type: biochemical
T2 construct: measured using 8 μg/mL of purified yCP or iCP
Procedure: as §1, §2

[4] = system: MDA-MB-231 cells; experiment: MTT assay cytotoxicity MDA-MB-231; details: Homo sapiens
Procedure: as §4, §5

[5] = target: T3, chymotrypsin-like activity of the 26S proteasome (Homo sapiens, UniProt P28074); experiment: Proteasome assay, chymotrypsin-like (ChT-L) activity, Suc-LLVY-AMC, Jurkat cell lysate; assay type: biochemical; details: ± S.D., read-out: Proteasome Inhibition ChT-like IC50
T3 construct: endogenous in cells; host or cells: Jurkat (ATCC TIB-152, E6-1 clone) cell lysate
T3 sequence (P28074 60-263): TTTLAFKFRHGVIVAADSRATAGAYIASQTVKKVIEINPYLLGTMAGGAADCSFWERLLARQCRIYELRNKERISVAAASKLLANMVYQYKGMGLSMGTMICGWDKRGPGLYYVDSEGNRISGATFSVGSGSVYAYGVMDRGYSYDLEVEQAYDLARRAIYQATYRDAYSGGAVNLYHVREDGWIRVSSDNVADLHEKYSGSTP
Procedure: (§3) The lysate was stored at −80° C. until the sample was used for the proteasome assay.
as §1

[6] = target: T4, trypsin-like activity of the 26S proteasome (Homo sapiens, UniProt Q99436); experiment: Proteasome assay, trypsin-like (T-L) activity, SUC-RLR-AMC, Jurkat cell lysate; assay type: biochemical
T4 construct: endogenous in cells; host or cells: Jurkat (ATCC TIB-152, E6-1 clone) cell lysate
T4 sequence (Q99436 44-277): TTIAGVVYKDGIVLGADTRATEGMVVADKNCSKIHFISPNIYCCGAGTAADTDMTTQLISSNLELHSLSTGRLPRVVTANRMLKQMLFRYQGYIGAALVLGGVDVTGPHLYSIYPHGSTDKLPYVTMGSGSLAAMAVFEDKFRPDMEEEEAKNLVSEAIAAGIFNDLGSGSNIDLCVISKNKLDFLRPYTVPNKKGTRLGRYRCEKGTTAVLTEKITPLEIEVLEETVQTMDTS
Procedure: as §3, §1

[7] = system: RPMI 8226 cells; experiment: MTT assay cytotoxicity RPMI 8226; details: Homo sapiens
Procedure: as §4, §5

[8] = system: cancer cells (MCF7, MDA-MB-231, RPMI 8226); experiment: MTT cytotoxicity, cell line not given
[9] = target: T5, immunoproteasome iβ5 subunit (Homo sapiens, UniProt P20618+P28062); experiment: Subunit selectivity, purified immunoproteasome iβ5; assay type: biochemical
T5 construct: purchased Enzo Life Sciences
Procedure: as §1, §2

[10] = target: T6, yeast proteasome yβ5 subunit (Saccharomyces cerevisiae, UniProt P23724+P30656); experiment: Subunit selectivity, purified yeast proteasome yβ5; assay type: biochemical
T6 construct: measured using 8 μg/mL of purified yCP or iCP
Procedure: as §1, §2

[11] = system: ubiquitinated proteins in MCF7 cells; experiment: Western blot of ubiquitinated proteins; assay type: cell-based, human
Procedure: The cells were incubated for 9.5 hrs at 37° C. and 5% CO2. After washing with PBS twice, cells were scraped, pelleted and lysed with CytoBuster™ Protein Extraction Reagent \ containing 10 μM compound 8, 10 μM Na3VO4, 0.017 mg/mL Aprotinin, 1 mM PMSF, and 1% Protease Inhibitor Cocktail. Thereafter 30 μg of protein in sample buffer (50 mM Tris-HCl, 2% SDS, 10% Glycerol, 1% β-mercaptoethanol, 12.5 mM EDTA, 0.02% Bromophenol Blue, pH 6.8) that had been boiled at 90° C. for 5 min, was electrophoresed using 6/8% SDS-PAGE, and the protein transferred to a […] PVDF membrane using a BioRad Trans-Blot® SD at 15 V for 17 minutes. The membrane was blocked with 1× casein buffer (Diluted 1:10 in water from casein blocking buffer 10×), and probed with either the polyclonal rabbit anti β-Actin (1:500) or the polyclonal rabbit anti-ubiquitin antibody (1:300), and stained with goat anti-rabbit IgG (H+L) HRP conjugate (1:3000) secondary antibodies. Antibody-recognized bands were visualized by a standard horseradish peroxidase chemiluminescent assay with an ECL kit.

[12] = system: Jurkat cells; experiment: Apoptosis assay (Annexin V-FITC, flow cytometry); assay type: cell-based, human
Procedure: Apoptosis assay: 1 mL of Jurkat cells, at a density of 500,000 cells per milliliter, was added to 12 wells of a 24 well microtiter plate. Cells were treated immediately using a serial dilution of the synthesized proteasome inhibitors, the benzyl ester of Cystargolide B and the belactosin-cystargolide hybrid molecule. 10 μM Paclitaxel and 0.2 μg/mL Doxorubicin hydrochloride were used as positive apoptosis controls and non-treated cells were used as a negative control. The cells were then incubated for 24 h at 37° C. and 5% CO2. The following day, Annexin V-FITC conjugate was used to assay for the expression of phosphatidyl serine on the […] of the cellular membrane. The cells were briefly pelleted, aspirated, and resuspended in 300 μL of a reaction mixture containing 0.2 μL/mL of the Annexin V FITC solution, 2 mM CaCl2 to enable binding, and 2 μg/mL propidium iodide as an indicator of cell permeability. Each sample was incubated at 37° C. for 20 minutes, and then analyzed by flow cytometry. Single, whole cells were selected based on the forward and the side-scatter. With an excitation of 488 nm Annexin V-FITC binding was identified using FL1 533 nm emission. Propidium iodide staining was selected based on FL2 585 nm emission. […] Measurements were taken in biological triplicate for each sample, and the results were confirmed in technical triplicate.

[13] = system: Jurkat cells; experiment: Cell cycle assay (flow cytometry); assay type: cell-based, human
Procedure: Vybrant® DyeCycle™ Orange Stain was used for the cell cycle assay. The amount of fluorescence of DNA was used as a relative measure of a cell's stage in the cell cycle. 500,000 Jurkat cells were added to wells on a 24 well microtiter plate in 1 mL of supplemented RPMI media. The cells were then treated with Compound 1 (TABLE 2). Using the cells treated for 12 and 24 hours, stained DNA fluorescence was measured via flow cytometry. The cells were taken from each well, pelleted briefly, aspirated, resuspended in 300 μL of 2 μL/mL Vybrant® DyeCycle™ Orange Stain, incubated at 37° C. for 15 minutes, and analyzed by flow cytometry. Selecting whole cells based on forward and side scatter, stained DNA fluorescence was excited at 488 nm and measured at an emission wavelength of 585 nm, using amount of fluorescence as a means of distinguishing between populations of cells. Populations were identified as G1 for the peak associated with the lowest amount of fluorescence, S phase for increased fluorescence appearing as a shoulder off of the G1 peak, and G2/M for approximately 2 times the fluorescence as the G1 peak. Measurements were taken in biological triplicate and confirmed in technical triplicate.

[14] = target: T7, ChT-L activity of 26S proteasomes in intact MCF-7 cells (Homo sapiens, UniProt P28074); experiment: Cell infiltration of PIs: proteasome inhibition in intact MCF7 cells; assay type: cell-based; details: intact versus lysed MCF-7 cells, 1 h
T7 construct: endogenous in cells; host or cells: MCF7 cells (treated intact, then lysed)
T7 sequence (P28074 60-263): T3 sequence (P28074 60-263)
Procedure: 100 μL MCF7 cells at a concentration of 500,000 cells/mL were added to a 96 well microtiter plate and incubated overnight at 37° C. and 5% CO2 to allow cells to adhere at 100% confluency. The cells were treated and then incubated for at 37° C. and 5% CO2 for 1 hour as a standard time to allow for drug infiltration. […] The plate was rocked on ice for 1 hr and then 90 μL of cell lysate was transferred to a black 96 well microtiter plate. 10 μL of lysis buffer was added to the top of all wells containing treated cells and one set of control wells. 10 μL of 1 mM of compound 8 was added to the second set of control wells as a positive control for proteasome inhibition. The plate was then incubated at 37° C. for 15 minutes to allow for control drug binding. Chymotrypsin-like activity was then measured by adding 10 μL of 100 μM Suc-LLVY-AMC in lysis buffer to each well and then incubating for 1 h at 37° C. […] Standard deviation for cell infiltration was calculated by propagating the error from the two IC50 values.
The difference between proteasome inhibition within intact versus lysed cells was evaluated as a representative measure of PIs ability to infiltrate cells and access intracellular proteasomes. […] Assays were performed in biological triplicate, and the data points are reported with the corresponding standard deviations. […]

[15] = MCF7, 48 h, read-out: Cytotoxicity MCF7 IC50
[16] = MCF7, read-out: Cytotoxicity MCF7 IC50
[17] = MDA-MB-231, 48 h, read-out: Cytotoxicity MDA-MB-231 IC50
[18] = MDA-MB-231, read-out: Cytotoxicity MDA-MB-231 IC50
[19] = RPMI-8226, 48 h, read-out: Cytotoxicity RPMI 8226 IC50
[20] = 8 μg/mL purified yCP, ± SD, read-out: yβ1 IC50
[21] = 8 μg/mL purified yCP, ± SD, read-out: yβ2 IC50
[22] = 8 μg/mL purified iCP, ± SD, read-out: iβ5 IC50
[23] = Table 2, P1 analogues, ± S.D., read-out: Proteasome Inhibition T-L-like IC50

Structure (SMILES): CC(C)C[C@H](NC(=O)[C@H](CCc1ccccc1)NC(=O)CN1CCOCC1)C(=O)N[C@@H](Cc1ccccc1)C(=O)N[C@@H](CC(C)C)C(=O)[C@@]1(C)CO1 [Carfilzomib, reference compound]
- IC50 [1, 15]: 4 ± 1 nM
- IC50 [1, 16]: 4.08 ± 0.056 nM
- IC50 [2]: > 1000 nM
- IC50 [3]: > 1000 nM
- IC50 [4, 17]: 4 ± 2 nM
- IC50 [4, 18]: 2.79 ± 0.464 nM

Structure (SMILES): CC[C@H](C)[C@@H]1C(=O)O[C@H]1C(=O)NCC(=O)N[C@H](C(=O)OCc1ccccc1)C(C)C [Compound 10a, Benzyl ((2R,3S)-3-((S)-sec-butyl)-4-oxooxetane-2-carbonyl)glycyl-L-valinate]
- IC50 ([5]; Table 3, P2/P3 analogues): 3.8 ± 1.4 nM
- IC50 [1, 15]: ~4000 nM
- IC50 [6]: 256 ± 72 nM
- IC50 [7, 19]: 840 ± 429 nM
- IC50 [4, 17]: 952 ± 262 nM
- concentration up to which complete cytotoxicity was not achieved [8]: > 100 µM

Structure (SMILES): CC(C)C1C(=O)OC1C(=O)N[C@H](C(=O)N[C@H](C(=O)O)C(C)C)C(C)C (some centres unmarked) [CysB, Cystargolide B, reference compound]
- IC50 [2, 20]: 10200 ± 780 nM
- IC50 [3, 21]: 61600 ± 4840 nM
- IC50 [9, 22]: 681 ± 177 nM

Structure (SMILES): CC(C)[C@H](NC(=O)[C@@H]1OC(=O)[C@H]1C(C)C)C(=O)N[C@H](C(=O)OCc1ccccc1)C(C)C [Compound 1]
- IC50 ([5]; Table 2, P1 analogues): 8.9 ± 6.2 nM
- IC50 [1, 15]: 8090 ± 4270 nM
- IC50 [6, 23]: 1950 ± 901 nM
- IC50 [2, 20]: 4180 ± 438 nM
- IC50 [3, 21]: 14600 ± 910 nM
- IC50 ([10]; 8 μg/mL purified yCP, ± SD, read-out: yβ5 IC50): 37.2 ± 4.5 nM
- IC50 [7, 19]: 1310 ± 745 nM
- IC50 [4, 17]: 2790 ± 464 nM
- accumulation of ubiquitinated proteins [11]: accumulation of ubiquitinated proteins
- induction of apoptosis [12]: induction of apoptosis
- cell cycle arrest [13]: cell cycle arrest in the G2/M phase
- IC50 [9]: 44.7 ± 12.8 nM

Structure (SMILES): CC(C)[C@H](NC(=O)[C@@H]1OC(=O)[C@H]1C1CC1)C(=O)N[C@H](C(=O)OCc1ccccc1)C(C)C [Compound 9a, Benzyl ((2R,3S)-3-cyclopropyl-4-oxooxetane-2-carbonyl)-L-valyl-L-valinate]
- IC50 ([5]; Table 2, P1 analogues): 12.2 ± 5.6 nM
- IC50 [1, 15]: > 100000 nM
- IC50 [6, 23]: 2480 ± 433 nM
- IC50 [7, 19]: 72000 ± 13800 nM
- IC50 [4, 17]: > 100000 nM
- cellular infiltration / ability to inhibit intracellular proteasomes (in words) [14]: lowest performance

Structure (SMILES): CC[C@H](C)[C@@H]1C(=O)O[C@H]1C(=O)N[C@H](C(=O)N[C@H](C(=O)NCc1ccccc1)C(C)C)C(C)C [Compound 11e, (2R,3S)—N—((S)-1-(((S)-1-(benzylamino)-3-methyl-1-oxobutan-2-yl)amino)-3-methyl-1-oxobutan-2-yl)-3-((S)-sec-butyl)-4-oxooxetane-2-carboxamide]
- IC50 ([5]; Table 4, P4 analogues): 4.5 ± 2.9 nM
- IC50 [1, 15]: 814 ± 121 nM
- IC50 [2]: 1380 ± 106 nM
- IC50 [3]: 2920 ± 210 nM
- IC50 [10]: 5.4 ± 0.5 nM
- IC50 [7, 19]: 387 ± 177 nM
- IC50 [4, 17]: 742 ± 212 nM

Structure (SMILES): CC[C@H](C)[C@@H]1C(=O)O[C@H]1C(=O)N[C@H](C(=O)N[C@@H](COCc1ccccc1)C(=O)OCc1ccccc1)C(C)C [Compound 10k, Benzyl O-benzyl-N-(((2R,3S)-3-((S)-sec-butyl)-4-oxooxetane-2-carbonyl)-L-valyl)-L-serinate]
- IC50 [1, 15]: 284 ± 132 nM
- IC50 [1, 16]: 178 ± 23.4 nM
- IC50 ([6]; Table 3, P2/P3 analogues, ± S.D., read-out: Proteasome Inhibition T-L-like IC50): 1340 ± 334 nM
- IC50 [2]: 17800 ± 2070 nM
- IC50 [3]: > 50000 nM
- IC50 [10]: 24.5 ± 3.9 nM
- IC50 [7, 19]: 50 ± 28 nM
- IC50 ([7]; RPMI-8226, read-out: Cytotoxicity RPMI 8226 IC50): 40.5 ± 1.66 nM
- IC50 [4, 17]: 90 ± 51 nM
- IC50 [4, 18]: 75.6 ± 3.49 nM
- cytotoxicity IC50 for all three cell lines tested (in words) [8]: midrange nanomolar
- times less cytotoxic than carfilzomib [8]: about 10 times
- IC50 [9, 22]: 9.1 ± 2.7 nM
